Numbering of substitutions follows the chain as printed.
Experiments:
Experiment in all cases: Influence of CL on the enzyme activity
Type in all cases: biochemical
CPT II variant S113L = target: T1, CPT II variant S113L (Homo sapiens, UniProt P23786, S113L); conditions: for Maximal Enzymatic Activity: w/o CL = 100
T1 construct: made in house; host or cells: Escherichia coli BL21Gold DE
T1 sequence (P23786 26-658 S113L): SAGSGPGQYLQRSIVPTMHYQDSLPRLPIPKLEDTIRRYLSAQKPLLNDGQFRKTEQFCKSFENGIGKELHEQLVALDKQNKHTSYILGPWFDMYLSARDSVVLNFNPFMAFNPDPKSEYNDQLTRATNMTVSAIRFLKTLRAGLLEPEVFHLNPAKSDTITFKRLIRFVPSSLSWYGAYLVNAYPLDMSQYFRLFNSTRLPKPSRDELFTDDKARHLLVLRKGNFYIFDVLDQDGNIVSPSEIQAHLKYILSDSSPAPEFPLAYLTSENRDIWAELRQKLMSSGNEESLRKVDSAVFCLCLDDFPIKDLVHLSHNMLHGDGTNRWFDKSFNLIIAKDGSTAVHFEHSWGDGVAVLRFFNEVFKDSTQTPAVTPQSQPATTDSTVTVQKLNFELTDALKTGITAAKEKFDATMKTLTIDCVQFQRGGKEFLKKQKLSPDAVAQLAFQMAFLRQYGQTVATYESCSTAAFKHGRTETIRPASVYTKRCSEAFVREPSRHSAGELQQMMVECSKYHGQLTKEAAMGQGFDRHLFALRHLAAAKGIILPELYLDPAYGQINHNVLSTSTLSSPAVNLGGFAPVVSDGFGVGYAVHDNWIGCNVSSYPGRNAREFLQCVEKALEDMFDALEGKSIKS
Protocol: (§1) Then, the effect of CL, as a potential stabilizing agent, was investigated in the activity assay. Therefore, 0.1 mg/mL recombinant enzyme was incubated with various concentrations of CL (0.125, 0.25 or 0.5 mM) or buffer at 30 and 42 °C, respectively.
(§2) Before activity measurements, the storage buffer of the enzymes was replaced with assay buffer (50 mM KH2PO4, 120 mM KCl, 1 mM EDTA-Na4) using vivaspin turbo 4 tubes (Satorius Stedim biotech GmbH, Göttingen, Germany) at 4 °C. The pH of assay buffer was adjusted with KOH to 7.4. The storage buffer was diluted at least 1:500 in assay buffer. In addition, before each experimental set up, the protein samples were centrifuged at 16,000× g for 5 min at 4 °C to remove any micro-aggregates. After that, the protein concentration was determined using bicinchoninic acid (BCA) protein assay kit (Thermo Fisher Scientific GmbH, Berlin, Germany). The enzyme activity of recombinant CPT II was performed following Rufer et al. with modifications described elsewhere. […] After pre-conditioning the mixture to 25 °C for 2 min, the reaction was started by adding 15 nM of recombinant enzyme. The reverse reaction of CPT II was detected with the enzyme activity assay. CPT II catalyzed the transfer of fatty acid residue from Pal-CoA to L-carnitine with release of CoA and Pal-carnitine. The released CoA was then detected by the reaction of the free thiol group with DTNB, forming 5-mercapto-(2-nitrobenzoic acid). This compound has a molar extinction coefficient of 13,600 M^−1 cm^−1 at a wavelength of 410 nm, and its formation was followed spectroscopically. […] The slope of the progress curve was used to determine the reaction velocity.
(§3) The purified enzymes were incubated at different temperatures (30, 37, 40 and 42 °C) using a protein concentration of 1 mg/mL during the incubation periods to investigated the half-lives of WT and variants. 0.1 mg/mL enzyme was incubated with or without CL (0.125, 0.25 and 0.5 mM) in the assay buffer. The enzyme activities were determined by adding 15 nM of pre-incubated enzyme according to Section 4.3 after various incubation times up to 60 min at an assay temperature of 25 °C. Experiments were done at least three times independently as double determination.

CPT II variant P50H = target: T2, CPT II variant P50H (Homo sapiens, UniProt P23786, P50H); conditions: for Maximal Enzymatic Activity: w/o CL = 100
T2 construct: made in house; host or cells: Escherichia coli BL21Gold DE
T2 sequence (P23786 26-658 P50H): T1 sequence (P23786 26-658 S113L) with P25H, L88S
Protocol: as §1, §2, §3

CPT II variant Y479F = target: T3, CPT II variant Y479F (Homo sapiens, UniProt P23786, Y479F)
T3 construct: made in house; host or cells: Escherichia coli BL21Gold DE
T3 sequence (P23786 26-658 Y479F): T1 sequence (P23786 26-658 S113L) with L88S, Y454F
Protocol: as §1, §2, §3

Increase of the enzymatic activity by CL (CPT II variant S113L): marginal effect | Maximal Enzymatic Activity (CPT II variant S113L; 0.25 mM CL): 114.5 ± 8.3% | Maximal Enzymatic Activity (CPT II variant S113L; 0.5 mM CL): 98.7 ± 5.1% | Enzymatic activity in the presence of CL (CPT II variant S113L; before incubation periods): 115% | Increase of the enzymatic activity by CL (CPT II variant P50H): marginal effect | Maximal Enzymatic Activity (CPT II variant P50H; 0.25 mM CL): 113.0 ± 7.6% | Maximal Enzymatic Activity (CPT II variant P50H; 0.5 mM CL): 94.5 ± 6.4% | Enzymatic activity in the presence of CL (CPT II variant P50H; before incubation periods): 113% | Effect of CL on maintenance of enzyme activity (CPT II variant P50H; incubation at 42 °C): almost no effect | Increase of the enzymatic activity by CL (CPT II variant Y479F): 1.8 fold | Maximal Enzymatic Activity (CPT II variant Y479F; 0.5 mM CL, w/o CL = 100): 151.7 ± 7.6% | Enzymatic activity in the presence of CL (CPT II variant Y479F; before incubation periods): 175%
Substance: Cardiolipin [CL]
